Data taken from the supplement of paper PMC8882468.

system: HCI-001 (organoid from a triple-negative breast cancer xenograft); assay: CTG-3D luminescence at 96 h relative to day-0 seeding control (ratio to day 0); higher = more growth / less cytotoxicity; PDxO 3D drug screen, 96 h, CTG-3D normalised to day-0 seeding control.; details: 100 µM; days in culture: 240

Compound	CTG-3D luminescence at 96 h
CC(C)n1nc(-c2ccc3oc(N)nc3c2)c2c(N)ncnc21 [sapanisertib]	0.187
Cc1nc(-c2cn3c(n2)-c2ccc(-c4cnn(C(C)(C)C(N)=O)c4)cc2OCC3)n(C(C)C)n1 [taselisib]	0.093
Cc1cc(Nc2ncnc3ccc(NC4=NC(C)(C)CO4)cc23)ccc1Oc1ccn2ncnc2c1 [tucatinib]	0.0264
CS(=O)(=O)c1ccc(C(=O)Nc2ccc(Cl)c(-c3ccccn3)c2)c(Cl)c1 [vismodegib]	0.836
CNC(=O)c1cccc(-c2ccc3c(N4CCOC[C@@H]4C)nc(N4CCOC[C@@H]4C)nc3n2)c1 [vistusertib]	0.27

same assay, conditions: 100 µM; days in culture: 260

Compound	CTG-3D luminescence at 96 h
CC(C)n1nc(-c2ccc3oc(N)nc3c2)c2c(N)ncnc21 [sapanisertib]	0.21
Cc1nc(-c2cn3c(n2)-c2ccc(-c4cnn(C(C)(C)C(N)=O)c4)cc2OCC3)n(C(C)C)n1 [taselisib]	0.019
Cc1cc(Nc2ncnc3ccc(NC4=NC(C)(C)CO4)cc23)ccc1Oc1ccn2ncnc2c1 [tucatinib]	0.206
CS(=O)(=O)c1ccc(C(=O)Nc2ccc(Cl)c(-c3ccccn3)c2)c(Cl)c1 [vismodegib]	0.909
CNC(=O)c1cccc(-c2ccc3c(N4CCOC[C@@H]4C)nc(N4CCOC[C@@H]4C)nc3n2)c1 [vistusertib]	0.406

same assay, conditions: 100 µM; days in culture: 269

Compound	CTG-3D luminescence at 96 h
CC(C)n1nc(-c2ccc3oc(N)nc3c2)c2c(N)ncnc21 [sapanisertib]	0.22
Cc1nc(-c2cn3c(n2)-c2ccc(-c4cnn(C(C)(C)C(N)=O)c4)cc2OCC3)n(C(C)C)n1 [taselisib]	0.0422
Cc1cc(Nc2ncnc3ccc(NC4=NC(C)(C)CO4)cc23)ccc1Oc1ccn2ncnc2c1 [tucatinib]	0.0618
CS(=O)(=O)c1ccc(C(=O)Nc2ccc(Cl)c(-c3ccccn3)c2)c(Cl)c1 [vismodegib]	0.861
CNC(=O)c1cccc(-c2ccc3c(N4CCOC[C@@H]4C)nc(N4CCOC[C@@H]4C)nc3n2)c1 [vistusertib]	0.378

same assay, conditions: 100 µM; days in culture: 327

Compound	CTG-3D luminescence at 96 h
CC(C)n1nc(-c2ccc3oc(N)nc3c2)c2c(N)ncnc21 [sapanisertib]	0.111
Cc1nc(-c2cn3c(n2)-c2ccc(-c4cnn(C(C)(C)C(N)=O)c4)cc2OCC3)n(C(C)C)n1 [taselisib]	0.213
Cc1cc(Nc2ncnc3ccc(NC4=NC(C)(C)CO4)cc23)ccc1Oc1ccn2ncnc2c1 [tucatinib]	0.0356
CS(=O)(=O)c1ccc(C(=O)Nc2ccc(Cl)c(-c3ccccn3)c2)c(Cl)c1 [vismodegib]	1.19
CNC(=O)c1cccc(-c2ccc3c(N4CCOC[C@@H]4C)nc(N4CCOC[C@@H]4C)nc3n2)c1 [vistusertib]	0.721

same assay, conditions: 100 µM; days in culture: 346

Compound	CTG-3D luminescence at 96 h
CC(C)n1nc(-c2ccc3oc(N)nc3c2)c2c(N)ncnc21 [sapanisertib]	0.15
Cc1nc(-c2cn3c(n2)-c2ccc(-c4cnn(C(C)(C)C(N)=O)c4)cc2OCC3)n(C(C)C)n1 [taselisib]	0.269
Cc1cc(Nc2ncnc3ccc(NC4=NC(C)(C)CO4)cc23)ccc1Oc1ccn2ncnc2c1 [tucatinib]	0.0455
CS(=O)(=O)c1ccc(C(=O)Nc2ccc(Cl)c(-c3ccccn3)c2)c(Cl)c1 [vismodegib]	1.35
CNC(=O)c1cccc(-c2ccc3c(N4CCOC[C@@H]4C)nc(N4CCOC[C@@H]4C)nc3n2)c1 [vistusertib]	0.566

same assay, conditions: 100 µM; days in culture: 364

Compound	CTG-3D luminescence at 96 h
CC(C)n1nc(-c2ccc3oc(N)nc3c2)c2c(N)ncnc21 [sapanisertib]	0.14
Cc1nc(-c2cn3c(n2)-c2ccc(-c4cnn(C(C)(C)C(N)=O)c4)cc2OCC3)n(C(C)C)n1 [taselisib]	0.0204
Cc1cc(Nc2ncnc3ccc(NC4=NC(C)(C)CO4)cc23)ccc1Oc1ccn2ncnc2c1 [tucatinib]	0.0245
CS(=O)(=O)c1ccc(C(=O)Nc2ccc(Cl)c(-c3ccccn3)c2)c(Cl)c1 [vismodegib]	1.1
CNC(=O)c1cccc(-c2ccc3c(N4CCOC[C@@H]4C)nc(N4CCOC[C@@H]4C)nc3n2)c1 [vistusertib]	0.601

same assay, conditions: 625 fM; days in culture: 240

Compound	CTG-3D luminescence at 96 h
CC(C)n1nc(-c2ccc3oc(N)nc3c2)c2c(N)ncnc21 [sapanisertib]	1.12
Cc1nc(-c2cn3c(n2)-c2ccc(-c4cnn(C(C)(C)C(N)=O)c4)cc2OCC3)n(C(C)C)n1 [taselisib]	1.22
Cc1cc(Nc2ncnc3ccc(NC4=NC(C)(C)CO4)cc23)ccc1Oc1ccn2ncnc2c1 [tucatinib]	1.43
CS(=O)(=O)c1ccc(C(=O)Nc2ccc(Cl)c(-c3ccccn3)c2)c(Cl)c1 [vismodegib]	2.27
CNC(=O)c1cccc(-c2ccc3c(N4CCOC[C@@H]4C)nc(N4CCOC[C@@H]4C)nc3n2)c1 [vistusertib]	1.82

same assay, conditions: 625 fM; days in culture: 260

Compound	CTG-3D luminescence at 96 h
CC(C)n1nc(-c2ccc3oc(N)nc3c2)c2c(N)ncnc21 [sapanisertib]	1.6
Cc1nc(-c2cn3c(n2)-c2ccc(-c4cnn(C(C)(C)C(N)=O)c4)cc2OCC3)n(C(C)C)n1 [taselisib]	1.57
Cc1cc(Nc2ncnc3ccc(NC4=NC(C)(C)CO4)cc23)ccc1Oc1ccn2ncnc2c1 [tucatinib]	1.5
CS(=O)(=O)c1ccc(C(=O)Nc2ccc(Cl)c(-c3ccccn3)c2)c(Cl)c1 [vismodegib]	1.99
CNC(=O)c1cccc(-c2ccc3c(N4CCOC[C@@H]4C)nc(N4CCOC[C@@H]4C)nc3n2)c1 [vistusertib]	1.23

same assay, conditions: 625 fM; days in culture: 269

Compound	CTG-3D luminescence at 96 h
CC(C)n1nc(-c2ccc3oc(N)nc3c2)c2c(N)ncnc21 [sapanisertib]	1.56
Cc1nc(-c2cn3c(n2)-c2ccc(-c4cnn(C(C)(C)C(N)=O)c4)cc2OCC3)n(C(C)C)n1 [taselisib]	1.86
Cc1cc(Nc2ncnc3ccc(NC4=NC(C)(C)CO4)cc23)ccc1Oc1ccn2ncnc2c1 [tucatinib]	1.69
CS(=O)(=O)c1ccc(C(=O)Nc2ccc(Cl)c(-c3ccccn3)c2)c(Cl)c1 [vismodegib]	1.51
CNC(=O)c1cccc(-c2ccc3c(N4CCOC[C@@H]4C)nc(N4CCOC[C@@H]4C)nc3n2)c1 [vistusertib]	1.6

same assay, conditions: 625 fM; days in culture: 327

Compound	CTG-3D luminescence at 96 h
CC(C)n1nc(-c2ccc3oc(N)nc3c2)c2c(N)ncnc21 [sapanisertib]	1.75
Cc1nc(-c2cn3c(n2)-c2ccc(-c4cnn(C(C)(C)C(N)=O)c4)cc2OCC3)n(C(C)C)n1 [taselisib]	1.84
Cc1cc(Nc2ncnc3ccc(NC4=NC(C)(C)CO4)cc23)ccc1Oc1ccn2ncnc2c1 [tucatinib]	1.78
CS(=O)(=O)c1ccc(C(=O)Nc2ccc(Cl)c(-c3ccccn3)c2)c(Cl)c1 [vismodegib]	1.94
CNC(=O)c1cccc(-c2ccc3c(N4CCOC[C@@H]4C)nc(N4CCOC[C@@H]4C)nc3n2)c1 [vistusertib]	1.93

same assay, conditions: 625 fM; days in culture: 346

Compound	CTG-3D luminescence at 96 h
CC(C)n1nc(-c2ccc3oc(N)nc3c2)c2c(N)ncnc21 [sapanisertib]	1.13
Cc1nc(-c2cn3c(n2)-c2ccc(-c4cnn(C(C)(C)C(N)=O)c4)cc2OCC3)n(C(C)C)n1 [taselisib]	1.12
Cc1cc(Nc2ncnc3ccc(NC4=NC(C)(C)CO4)cc23)ccc1Oc1ccn2ncnc2c1 [tucatinib]	1.21
CS(=O)(=O)c1ccc(C(=O)Nc2ccc(Cl)c(-c3ccccn3)c2)c(Cl)c1 [vismodegib]	1.34
CNC(=O)c1cccc(-c2ccc3c(N4CCOC[C@@H]4C)nc(N4CCOC[C@@H]4C)nc3n2)c1 [vistusertib]	1.28

same assay, conditions: 625 fM; days in culture: 364

Compound	CTG-3D luminescence at 96 h
CC(C)n1nc(-c2ccc3oc(N)nc3c2)c2c(N)ncnc21 [sapanisertib]	1.46
Cc1nc(-c2cn3c(n2)-c2ccc(-c4cnn(C(C)(C)C(N)=O)c4)cc2OCC3)n(C(C)C)n1 [taselisib]	1.53
Cc1cc(Nc2ncnc3ccc(NC4=NC(C)(C)CO4)cc23)ccc1Oc1ccn2ncnc2c1 [tucatinib]	1.63
CS(=O)(=O)c1ccc(C(=O)Nc2ccc(Cl)c(-c3ccccn3)c2)c(Cl)c1 [vismodegib]	1.64
CNC(=O)c1cccc(-c2ccc3c(N4CCOC[C@@H]4C)nc(N4CCOC[C@@H]4C)nc3n2)c1 [vistusertib]	1.78

system: HCI-002 (organoid from a triple-negative breast cancer xenograft); assay: as above; details: 12.5 pM; days in culture: 62

Compound	CTG-3D luminescence at 96 h
CC(C)n1nc(-c2ccc3oc(N)nc3c2)c2c(N)ncnc21 [sapanisertib]	2.83
Cc1nc(-c2cn3c(n2)-c2ccc(-c4cnn(C(C)(C)C(N)=O)c4)cc2OCC3)n(C(C)C)n1 [taselisib]	2.78
Cc1cc(Nc2ncnc3ccc(NC4=NC(C)(C)CO4)cc23)ccc1Oc1ccn2ncnc2c1 [tucatinib]	2.76
CS(=O)(=O)c1ccc(C(=O)Nc2ccc(Cl)c(-c3ccccn3)c2)c(Cl)c1 [vismodegib]	2.81
CNC(=O)c1cccc(-c2ccc3c(N4CCOC[C@@H]4C)nc(N4CCOC[C@@H]4C)nc3n2)c1 [vistusertib]	2.66

same assay, conditions: 12.5 pM; days in culture: 82

Compound	CTG-3D luminescence at 96 h
CC(C)n1nc(-c2ccc3oc(N)nc3c2)c2c(N)ncnc21 [sapanisertib]	3.4
Cc1nc(-c2cn3c(n2)-c2ccc(-c4cnn(C(C)(C)C(N)=O)c4)cc2OCC3)n(C(C)C)n1 [taselisib]	2.76
Cc1cc(Nc2ncnc3ccc(NC4=NC(C)(C)CO4)cc23)ccc1Oc1ccn2ncnc2c1 [tucatinib]	2.73
CS(=O)(=O)c1ccc(C(=O)Nc2ccc(Cl)c(-c3ccccn3)c2)c(Cl)c1 [vismodegib]	3.27
CNC(=O)c1cccc(-c2ccc3c(N4CCOC[C@@H]4C)nc(N4CCOC[C@@H]4C)nc3n2)c1 [vistusertib]	3.06

same assay, conditions: 12.5 pM; days in culture: 91

Compound	CTG-3D luminescence at 96 h
CC(C)n1nc(-c2ccc3oc(N)nc3c2)c2c(N)ncnc21 [sapanisertib]	4.16
Cc1nc(-c2cn3c(n2)-c2ccc(-c4cnn(C(C)(C)C(N)=O)c4)cc2OCC3)n(C(C)C)n1 [taselisib]	3.66
Cc1cc(Nc2ncnc3ccc(NC4=NC(C)(C)CO4)cc23)ccc1Oc1ccn2ncnc2c1 [tucatinib]	3.43
CS(=O)(=O)c1ccc(C(=O)Nc2ccc(Cl)c(-c3ccccn3)c2)c(Cl)c1 [vismodegib]	2.97
CNC(=O)c1cccc(-c2ccc3c(N4CCOC[C@@H]4C)nc(N4CCOC[C@@H]4C)nc3n2)c1 [vistusertib]	3.62

same assay, conditions: 12.5 pM; days in culture: 191

Compound	CTG-3D luminescence at 96 h
CC(C)n1nc(-c2ccc3oc(N)nc3c2)c2c(N)ncnc21 [sapanisertib]	2.25
Cc1nc(-c2cn3c(n2)-c2ccc(-c4cnn(C(C)(C)C(N)=O)c4)cc2OCC3)n(C(C)C)n1 [taselisib]	2.84
Cc1cc(Nc2ncnc3ccc(NC4=NC(C)(C)CO4)cc23)ccc1Oc1ccn2ncnc2c1 [tucatinib]	2.63
CS(=O)(=O)c1ccc(C(=O)Nc2ccc(Cl)c(-c3ccccn3)c2)c(Cl)c1 [vismodegib]	3.3
CNC(=O)c1cccc(-c2ccc3c(N4CCOC[C@@H]4C)nc(N4CCOC[C@@H]4C)nc3n2)c1 [vistusertib]	2.7

same assay, conditions: 12.5 pM; days in culture: 209

Compound	CTG-3D luminescence at 96 h
CC(C)n1nc(-c2ccc3oc(N)nc3c2)c2c(N)ncnc21 [sapanisertib]	2.41
Cc1nc(-c2cn3c(n2)-c2ccc(-c4cnn(C(C)(C)C(N)=O)c4)cc2OCC3)n(C(C)C)n1 [taselisib]	2.15
Cc1cc(Nc2ncnc3ccc(NC4=NC(C)(C)CO4)cc23)ccc1Oc1ccn2ncnc2c1 [tucatinib]	2.22
CS(=O)(=O)c1ccc(C(=O)Nc2ccc(Cl)c(-c3ccccn3)c2)c(Cl)c1 [vismodegib]	2.66
CNC(=O)c1cccc(-c2ccc3c(N4CCOC[C@@H]4C)nc(N4CCOC[C@@H]4C)nc3n2)c1 [vistusertib]	2.32

same assay, conditions: 12.5 pM; days in culture: 227

Compound	CTG-3D luminescence at 96 h
CC(C)n1nc(-c2ccc3oc(N)nc3c2)c2c(N)ncnc21 [sapanisertib]	5.28
Cc1nc(-c2cn3c(n2)-c2ccc(-c4cnn(C(C)(C)C(N)=O)c4)cc2OCC3)n(C(C)C)n1 [taselisib]	4.99
Cc1cc(Nc2ncnc3ccc(NC4=NC(C)(C)CO4)cc23)ccc1Oc1ccn2ncnc2c1 [tucatinib]	5.23
CS(=O)(=O)c1ccc(C(=O)Nc2ccc(Cl)c(-c3ccccn3)c2)c(Cl)c1 [vismodegib]	4.93
CNC(=O)c1cccc(-c2ccc3c(N4CCOC[C@@H]4C)nc(N4CCOC[C@@H]4C)nc3n2)c1 [vistusertib]	5.65
